For 4 compounds, cytotoxic effects, In vivo efficacy and IC50 results are on record in patent US20200360531A1, “ANTIBODY DRUG CONJUGATES (ADCS) WITH NAMPT INHIBITORS” (Bayer Aktiengesellschaft, priority 2018, published 2020).

Molecules are shown by their SMILES. Values joined by “and” are separate entries in the source; they are usually repeats but may differ in a detail not shown here. Equal values may be shown once. Some results are limits rather than exact numbers.

In data set [1] the test system is human breast and lung cancer cell line-derived in vivo models. As to conditions: in vitro and in vivo; cited from earlier work.
For data set [2], the system named is murine renal cell carcinoma model RENCA. As to conditions: cited from earlier work.
In the next data set the target is T1, human NAMPT (Homo sapiens, UniProt P43490).
T1 construct: N-terminally His6-tagged recombinant full length human NAMPT; His6 (N); made in house; host or cells: E. coli
In words: NAMPT biochemical assay (hNAMPT IC50), cascade assay with NMNAT1 and NAD/NADH-Glo detection. As to conditions: Table 2; replicate values on separate lines. The source says: NAMPT Biochemical Assay (hNAMPT IC50)
Nicotinamide phosphoribosyltransferase (NAMPT) inhibitory activity of compounds of the present invention was quantified employing a cascade assay as described in the following paragraphs. The assay couples the conversion of nicotinamide (NAM) to nicotinamide mononucleotide (NMN) by NAMPT with the conversion of NMN to […] adenine dinucleotide (NAD^+) by nicotinamide mononucleotide adenylyltransferase 1 (NMNAT1) and the subsequent quantification of the generated NAD^+ by a commercial detection kit (NAD/NADH-Glo™ Assay from Promega, #G9072).
N-terminally His6-tagged recombinant full length human NAMPT and N-terminally His6-tagged recombinant full length human NMNAT1, both expressed in E. coli and purified via Ni-NTA-affinity chromatography and consecutive size exclusion chromatography, were used as enzymes.
For the assay 50 nl of a 100 fold concentrated solution of the test compound in DMSO was pipetted into a white low volume 384 well microtiter plate (Greiner Bio-One, Frickenhausen, Germany), 2.5 μl of a solution of NAMPT in aqueous NMNAT1-containing assay buffer [50 mM Tris/HCl pH 7.5, 12 mM MgCl2, 0.6 mM adenosine-tri-phosphate (ATP), 1 nM NMNAT1, 0.02% (w/v) bovine serum albumin (Sigma-Aldrich #P7906), 0.001% (v/v) Tween-20 (Sigma-Aldrich #P7949)] were added and the mixture was incubated for 15 min at 22° C. to allow pre-binding of the test compounds to the enzyme before the start of the enzyme reaction. Then the reaction was started by the addition of 2.5 μl of a solution of NAM (300 nM=>final conc. in the 5 μl assay volume is 150 nM, Sigma-Aldrich #^47865) and 5-phosphorylribose-1-pyrophosphate pentasodium salt (PRPP, 1.2 μM=>final conc. in the 5 μl assay volume is 0.6 μM, Sigma-Aldrich P8296) in assay buffer and the resulting mixture was incubated for a reaction time of 20 min at 22° C. The concentration of NAMPT was adjusted depending of the activity of the enzyme lot and was chosen appropriate to have the assay in the linear range, typical final concentration in the 5 μl assay volume was 0.16 nM.
The resulting mixture was incubated 2 h at 22° C. to allow a steady-state of the detection system. Subsequently the generated luminescence was measured in a suitable luminescence reader, e.g. a Viewlux™ (Perkin-Elmer), and taken as a measure for the generated NAD^+.

A further data set relates to MDA-MB-453. In words: Cell proliferation assay, Cell Titer Glo (CTG) method, MDA-MB-453. It is filed as cell-based. As to conditions: Homo sapiens, MDA-MB-453, 72 h, Table 2, read-out: MDA-MB-453 72 h IC50. On the procedure: (§1) Cell Proliferation Assay for Nampt-ADCs and Nampt-SMOLs
(§2) Cell Titer Glo (CTG) Method
(§3) To this end, 75 μL per well CTG solution (Promega, catalog #G755B and G756B) was added to cells in sister plates, incubated for 10 min, and luminescence was measured on a VICTOR V instrument (Perkin Elmer). After incubation for either 72 or 96 hrs (Table 1) in the presence of test compounds, 100 μl per well CTG solution was added to all test wells, incubated for 10 min and luminescence was measured on a VICTOR V instrument. […] The DRC software is a Biobook Spreadsheet that was developed by Bayer AG and Bayer Business Services on the IDBS E-Workbook Suite platform (IDBS: ID Business Solutions Ltd., Guildford, UK).
In general terms: Cellular ATP, detected with luciferase, serves as a proxy for viable cell number.

For the next data set, the system named is A549 C4.4a B4. In words: Cell proliferation assay, Cell Titer Glo (CTG) method, A549 C4.4a B4. It is filed as cell-based, human. As to conditions: Homo sapiens, A549, 72 h, Table 2, read-out: A549 C4.4a B4 72 h IC50. As for the experimental part: as §1, §2, §3
The next data set deals with THP-1. In words: Cell proliferation assay, Cell Titer Glo (CTG) method, THP-1. It is filed as cell-based, human. As to conditions: Homo sapiens, THP-1; Table 2; 72 h. As for the experimental part: as §1, §2, §3
A further data set has as its system U251 MG. In words: Cell proliferation assay, Cell Titer Glo (CTG) method, U251 MG. It is filed as cell-based. As to conditions: Table 2. As for the experimental part:
as §1, §2, §3

T1 sequence (P43490 whole entry): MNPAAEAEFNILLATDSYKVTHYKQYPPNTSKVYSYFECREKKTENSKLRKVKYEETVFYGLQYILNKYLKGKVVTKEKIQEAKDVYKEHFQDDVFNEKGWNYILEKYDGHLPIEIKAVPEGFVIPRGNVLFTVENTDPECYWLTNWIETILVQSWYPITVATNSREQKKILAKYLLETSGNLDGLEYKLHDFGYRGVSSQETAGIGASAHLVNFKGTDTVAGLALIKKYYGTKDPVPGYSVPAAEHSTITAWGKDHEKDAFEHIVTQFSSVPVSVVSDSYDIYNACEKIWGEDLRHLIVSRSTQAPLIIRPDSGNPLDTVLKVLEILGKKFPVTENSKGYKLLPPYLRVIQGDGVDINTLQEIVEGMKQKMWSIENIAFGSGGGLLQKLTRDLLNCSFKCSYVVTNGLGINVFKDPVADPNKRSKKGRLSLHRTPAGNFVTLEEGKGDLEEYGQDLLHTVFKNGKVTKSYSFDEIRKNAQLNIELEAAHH

On to `N#CN=C(NCCCCCCOc1ccc(Cl)cc1)Nc1ccncc1` [CHS-828, N-[6-(4-chlorophenoxy)hexyl]-N′-cyano-N″-4-pyridinyl-guanidine], for which, in data set [1], the cytotoxic effects entry is recorded as “highly cytotoxic effects”.
With `O=C(/C=C/c1cccnc1)NCCCCC1CCN(C(=O)c2ccccc2)CC1` [daporinad, (E)-N-[4-(I-benzoylpiperidin-4-yl)butyl]-3-(pyridine-3-yl)-acrylamide], the In vivo efficacy entry in data set [2] is recorded as “In vivo efficacy of daporinad was shown”.
As a reminder, the IC50 is the midpoint of a concentration-inhibition curve. On to `O=C(Nc1ccc(-c2cc(-c3ccc4[nH]ncc4c3)c(=O)[nH]n2)cc1)N1Cc2ccncc2C1` [Example 16, N-{4-[5-(1H-indazol-5-yl)-6-oxo-1,6-dihydropyridazin-3-yl]phenyl}-1,3-dihydro-2H-pyrrolo[3,4-c]pyridine-2-carboxamide-hydrogen chloride], for which the concentration for half-maximal inhibition (IC50) was 0.323 nM and 0.326 nM at human NAMPT; less than 0.03 nM in the data set on MDA-MB-453; 23.2 nM in the data set on A549 C4.4a B4; less than 0.003 nM in the data set on THP-1; 0.0411 nM in the data set with U251 MG (Homo sapiens, U-251, 72 h); 0.057 nM with U251 MG (72 h).
`O=C1NN=C(c2ccc(NC(=O)N3Cc4ccncc4C3)cc2)CC1c1ccc2[nH]ccc2c1` (stereo not shown) [Example 21, N-{4-[5-(1H-Indol-5-yl)-6-oxo-1,4,5,6-tetrahydropyridazin-3-yl]phenyl}-1,3-dihydro-2H-pyrrolo[3,4-c]pyridine-2-carboxamide]: the concentration for half-maximal inhibition (IC50) against human NAMPT is 0.393 nM and 0.47 nM; with MDA-MB-453 it was less than 0.03 nM; with A549 C4.4a B4, 40.5 nM; with THP-1, less than 0.003 nM; in the data set on U251 MG (Homo sapiens, U-251, 72 h), less than 0.03 nM.
